From patent US20220331309A1, “PHARMACEUTICAL COMPOSITION FOR TREATING INSOMNIA” (priority 2019, published 2022)

Legend:
CYP3A = details: FDA guidance classification; cited from earlier work
[1] = Pharmacokinetics of lemborexant alone and in combination with itraconazole in healthy adults (Test Example 1-2); details: for Cmax (geometric mean): healthy adults
Protocol: (§1) HPLC (pump: LC-10ADvp or LC 20AD, Autosampler SLL 20ACHT, SHIMADZU Corporation) mass spectrometer (API5000 or API5500, AB Sciex)
(§2) A 10 μL solution of an internal standard substance (lemborexant labeled with deuterium) was added to 100 μL of a human plasma, and the resulting mixture was convened into a basic condition with 10 μL of aqueous ammonia and was subjected to liquid-liquid extraction with methyl tert-butyl ether (MTBE). After stirring (for about 10 minutes) and centrifugation (about 14000 rpm, for about 10 minutes) were performed, the upper layer was evaporated into dryness at 30° C. under a nitrogen stream, and was redissolved with 200 μL of a mixed solution (50/50, v/v) of 0.1% formic acid-containing acetonitrile/water to prepare a sample for LC-MS/MS.
(§3) The measurement was performed in an MRM mode by positive detection of an electrospray ionization (ESI) method. […] A variety of parameters for AP15500/5500 Qtrap used are shown below. Ion spray Voltage: 5500 v, Curtain Gas 40, CAD 8, Gas1 70, Gas2 70, DP100, Dwell time 250 (parameters are not limited to these)
(§4) The lemborexant concentration in the plasma was calculated using an internal standard calibration curve created through inverse regression according to the method of least squares generated from the ratio of the peak area of lemborexant to that of the internal standard substance.
A single dose of 10 mg lemborexant was administered to fifteen healthy adults (males and females, 21 to 55 years old) (single administration of lemborexant); 200 mg of itraconazole was administered one time per day from Day 15 to Day 34 where the single administration of lemborexant was defined as Day 1; and a single dose of 10 mg lemborexant was administered on Day 22 (administration of lemborexant in combination with itraconazole).

[2] = Prediction of pharmacokinetics of 2.5 mg lemborexant in combination with agent moderately or strongly inhibiting CYP3A (Test Example 1-3, dose proportionality); format: in vivo, human; details: for AUC(0-inf) / Cmax: both sexes, human, plasma, oral; for AUC(0-inf): read-out: mean AUC (0-inf) achieved; for Cmax: read-out: mean Cmax achieved
Protocol: The results are shown in Tables 3 and 4 with the actually measured values of the single administration of 10 mg lemborexant in Sections (1-1) and (1-2) above.

[3] = Single dose administration test of lemborexant in healthy adults (Test Example 3); format: in vivo, human; details: for AUC(0-inf) / Cmax: human, plasma, oral
Protocol: In 64 cases of healthy adults under a feed-deprived condition, the pharmacokinetics of lemborexant administered with single doses of 1, 2.5, 5, 10, 25, 50, 100, and 200 mg thereof was examined by a randomized, double-blinded, placebo-controlled, multi-stage single administration test. In each group, lemborexant was administered to six cases, and the placebo was administered to two cases.
The transition of the mean lemborexant concentration in the plasma when single doses of 1, […], 10, 25, 50, 100, and 200 mg lemborexant were administered to the healthy adults is shown in FIG. 1.

[4] = Pharmacokinetics of lemborexant alone and in combination with fluconazole in healthy adults (Test Example 1-1); details: for Cmax (geometric mean): healthy adults
Protocol: A single dose of 10 mg lemborexant was administered to fourteen healthy adults (males and females, 18 to 55 years old) (single administration of lemborexant); 200 mg of fluconazole was administered one time per day (two times only on Day 11) from Day 11 to Day 26 where the single administration of the lemborexant was defined as Day 1; and a single dose of 10 mg lemborexant was administered on Day 15 (administration of lemborexant in combination with fluconazole). The concentrations of lemborexant in the plasma during the single administration of lemborexant and during the administration of lemborexant in combination with fluconazole were measured with a high performance liquid chromatograph/tandem mass spectrometry (hereinafter, referred to as “LC-MS/MS”) under the following conditions to calculate the geometric means of the Cmax and the AUC (0-inf).
as §1, §2, §3, §4

[5] = 10 mg lemborexant in combination with itraconazole
[6] = both, human, plasma, oral, 10 mg
[7] = combination with itraconazole vs single administration, 10 mg lemborexant
[8] = single administration of 10 mg lemborexant, plasma
[9] = 2.5 mg lemborexant in combination with fluconazole
[10] = 2.5 mg lemborexant in combination with itraconazole
[11] = 2.5 mg lemborexant, lower to upper limit of 95% CI in combination with fluconazole
[12] = 2.5 mg lemborexant, lower to upper limit of 95% CI in combination with itraconazole
[13] = all administration groups, in average
[14] = 10 mg lemborexant in combination with fluconazole
[15] = combination with fluconazole vs single administration, 10 mg lemborexant

For `CCC(C)n1ncn(-c2ccc(N3CCN(c4ccc(OCC5COC(Cn6cncn6)(c6ccc(Cl)cc6Cl)O5)cc4)CC3)cc2)c1=O` (stereo not shown) [Itraconazole, itraconazole], the “Classification of CYP3A inhibiting action of drug used in combination” value (CYP3A) is given as “Strongly”.
For `Cc1ncc(OC[C@@]2(c3cccc(F)c3)C[C@H]2C(=O)Nc2ccc(F)cn2)c(C)n1` [lemborexant, (1R,2S)-2-(((2,4-dimethylpyrimidin-5-yl)oxy)methyl)-2-(3-fluorophenyl)-N-(5-fluoropyridin-2-yl)cyclopropanecarboxamide], the “increase of mean AUC (0-inf) compared to single administration” value [1, 5] was 270%, the “increase of mean Cmax compared to single administration” value [1, 5] was 36% and the “Cmax (geometric mean)” value ([1]; 10 mg lemborexant in combination with itraconazole 200 mg once per day, plasma) was 0.0739 µg/mL. The AUC(0-inf) [1, 6] was 0.433 µg·h/mL, the “AUC(0-inf) ratio of (d) to (c)” value [1, 7] was 3.70 and the “Cmax ratio of (d) to (c)” value [1, 7] was 1.36. For the same compound, the “Cmax (geometric mean)” value [1, 8] was 0.0543 µg/mL, the “AUC(0-inf), predicted value (geometric mean)” value [2, 9] was 0.37 µg·h/mL and the “Cmax, predicted value (geometric mean)” value [2, 9] was 0.0221 µg/mL. The “predicted mean AUC (0-inf) lower than mean AUC (0-inf) of single 10 mg dose” value [2, 9] was 1.1%, the “predicted mean Cmax lower than mean Cmax of single 10 mg dose” value [2, 9] was 59.4% and the “AUC(0-inf), predicted value (geometric mean)” value [2, 10] was 0.447 µg·h/mL. The “Cmax, predicted value (geometric mean)” value [2, 10] was 0.0189 µg/mL, the “predicted mean AUC (0-inf) higher than mean AUC (0-inf) of single 10 mg dose” value [2, 10] was 32% and the AUC(0-inf) [2, 11] was 0.308 to 0.445 µg·h/mL. For the same compound, the Cmax [2, 11] was 0.0181 to 0.0269 µg/mL, the AUC(0-inf) [2, 12] was 0.374 to 0.533 µg·h/mL and the Cmax [2, 12] was 0.017 to 0.0211 µg/mL. For the same compound, the Cmax ([2]; 2.5 mg, 2.5 mg lemborexant with moderate or strong CYP3A inhibitor, lower 95% CI limit with itraconazole to upper 95% CI limit with fluconazole) was 0.017 to 0.0269 µg/mL, the AUC(0-inf) ([2]; 2.5 mg lemborexant with moderate or strong CYP3A inhibitor, lower 95% CI limit with fluconazole to upper 95% CI limit with itraconazole) was 0.308 to 0.533 µg·h/mL and the “exposure until 9 hours after administration as proportion of the AUC (0-inf)” value [3, 13] was “about 45%”. The “exposure until 9 hours after administration as proportion of the exposure until 24 hours” value [3, 13] was “about 75%”, the “increase of geometric mean Cmax relative to dose” value ([3]; dose of 10 mg or more) was “slightly lower than the dose ratio” and the “dose dependence of the mean AUC (0-24 h)” value ([3]; examined dose range 1 to 200 mg) was “approximately dose proportionality”. For the same compound, the AUC(0-inf) ([3]; 5 mg, single administration of 5 mg lemborexant, healthy adults, read-out: AUC(0-inf), Geometric mean) was 0.146 µg·h/mL, the AUC(0-inf) ([3]; 5 mg, single administration of 5 mg lemborexant, healthy adults, read-out: AUC(0-inf), Mean) was 0.149 µg·h/mL and the AUC(0-inf) ([3]; 5 mg, single administration of 5 mg lemborexant, healthy adults, read-out: AUC(0-inf), Median) was 0.139 µg·h/mL. The AUC(0-inf) ([3]; 5 mg, single administration of 5 mg lemborexant, healthy adults, read-out: AUC(0-inf), Minimum value) was 0.123 µg·h/mL, the AUC(0-inf) ([3]; 5 mg, single administration of 5 mg lemborexant, healthy adults, read-out: AUC(0-inf), maximum value) was 0.209 µg·h/mL and the Cmax ([3]; 5 mg, single administration of 5 mg lemborexant, healthy adults, read-out: Cmax, Geometric mean) was 0.0223 µg/mL. It also gave a Cmax ([3]; 5 mg, single administration of 5 mg lemborexant, healthy adults, read-out: Cmax, Mean) of 0.0227 µg/mL, a Cmax ([3]; 5 mg, single administration of 5 mg lemborexant, healthy adults, read-out: Cmax, Median) of 0.0219 µg/mL and a Cmax ([3]; 5 mg, single administration of 5 mg lemborexant, healthy adults, read-out: Cmax, Minimum value) of 0.0172 µg/mL. For the same compound, the Cmax ([3]; 5 mg, single administration of 5 mg lemborexant, healthy adults, read-out: Cmax, maximum value) was 0.03 µg/mL, the AUC(0-inf) ([3]; 5 mg, single dose of 5 mg lemborexant, read-out: AUC (0-inf), lower limit value of the 95% confidence interval) was 0.113 µg·h/mL and the AUC(0-inf) ([3]; 5 mg, single dose of 5 mg lemborexant, read-out: AUC (0-inf), upper limit value of the 95% confidence interval) was 0.189 µg·h/mL. The Cmax ([3]; 5 mg, single dose of 5 mg lemborexant, read-out: Cmax, lower limit value of the 95% confidence interval) was 0.0183 µg/mL, the Cmax ([3]; 5 mg, single dose of 5 mg lemborexant, read-out: Cmax, upper limit value of the 95% confidence interval) was 0.0273 µg/mL and the AUC(0-inf) ([3]; 10 mg, single administration of 10 mg lemborexant, healthy adults, read-out: AUC(0-inf), Geometric mean) was 0.299 µg·h/mL. The AUC(0-inf) ([3]; 10 mg, single administration of 10 mg lemborexant, healthy adults, read-out: AUC(0-inf), Mean) was 0.311 µg·h/mL, the AUC(0-inf) ([3]; 10 mg, single administration of 10 mg lemborexant, healthy adults, read-out: AUC(0-inf), Median) was 0.314 µg·h/mL and the AUC(0-inf) ([3]; 10 mg, single administration of 10 mg lemborexant, healthy adults, read-out: AUC(0-inf), Minimum value) was 0.188 µg·h/mL. The AUC(0-inf) ([3]; 10 mg, single administration of 10 mg lemborexant, healthy adults, read-out: AUC(0-inf), maximum value) was 0.409 µg·h/mL, the Cmax ([3]; 10 mg, single administration of 10 mg lemborexant, healthy adults, read-out: Cmax, Geometric mean) was 0.032 µg/mL and the Cmax ([3]; 10 mg, single administration of 10 mg lemborexant, healthy adults, read-out: Cmax, Mean) was 0.036 µg/mL. The Cmax ([3]; 10 mg, single administration of 10 mg lemborexant, healthy adults, read-out: Cmax, Median) was 0.0314 µg/mL, the Cmax ([3]; 10 mg, single administration of 10 mg lemborexant, healthy adults, read-out: Cmax, Minimum value) was 0.0169 µg/mL and the Cmax ([3]; 10 mg, single administration of 10 mg lemborexant, healthy adults, read-out: Cmax, maximum value) was 0.0621 µg/mL. For the same compound, the AUC(0-inf) ([3]; 10 mg, single dose of 10 mg lemborexant, read-out: AUC (0-inf), lower limit value of the 95% confidence interval) was 0.216 µg·h/mL, the AUC(0-inf) ([3]; 10 mg, single dose of 10 mg lemborexant, read-out: AUC (0-inf), upper limit value of the 95% confidence interval) was 0.414 µg·h/mL and the Cmax ([3]; 10 mg, single dose of 10 mg lemborexant, read-out: Cmax, lower limit value of the 95% confidence interval) was 0.0183 µg/mL. The AUC(0-inf) ([3]; dose 5 to 10 mg, lower 95% CI limit Table 9 (5 mg) to upper 95% CI limit Table 4 (10 mg), read-out: mean AUC (0-inf) achieved) was 0.113 to 0.537 µg·h/mL, the Cmax ([3]; dose 5 to 10 mg, lower limit for 5 mg with weak CYP3A inhibitor to upper 95% CI limit Table 8 (10 mg), read-out: mean Cmax achieved) was 0.0165 to 0.056 µg/mL and the “Cmax, upper limit value of the 95% confidence interval” value ([3]; single dose of 10 mg lemborexant) was 0.056 µg/mL. For the same compound, the “elimination profile of plasma concentration after administration” value ([3]; single doses 1 to 200 mg, healthy adults) was “biphasic elimination”, the “increase of mean AUC (0-inf) compared to single administration” value [4, 14] was 317% and the “increase of mean Cmax compared to single administration” value [4, 14] was 62%. The “Cmax (geometric mean)” value ([4]; 10 mg lemborexant in combination with fluconazole 200 mg once per day, plasma) was 0.0883 µg/mL, the AUC(0-inf) [4, 6] was 0.374 µg·h/mL and the “AUC(0-inf) ratio of (b) to (a)” value [4, 15] was 4.17. The “Cmax ratio of (b) to (a)” value [4, 15] was 1.62 and the “Cmax (geometric mean)” value [4, 8] was 0.0544 µg/mL.
In the case of `OC(Cn1cncn1)(Cn1cncn1)c1ccc(F)cc1F` [fluconazole], the “Classification of CYP3A inhibiting action of drug used in combination” value (CYP3A) is listed as “moderately”.
